The values below come from patent US20070021357A1, “Treatment of inflammatory conditions” (Dynamis Therapeutics, Inc., priority 2005, published 2007).

Structures are written as SMILES.

Series [1] concerns kinase activity in the kidney cortex. Kind of series: Radioactive assay of FL3P production from FL and ATP. It is filed as biochemical, pig. The note with it: 10 mM FL, 10 mM γ33P-ATP, 30 minutes at 37° C., pH 7.5. Here is the method:
A 3 g sample of fresh pig kidney cortex was homogenized in 9 ml of 50 mM Tris.HCl containing 150 mM KCl, 5 mM DTT, 15 mM MgCl2, pH 7.5. This was centrifuged at 10,000 g for 30 minutes, and then the supernatant was centrifuged at 100,000 g for 60 minutes. Ammonium sulfate was added to 60% saturation. After 1 hour at 4° C. the precipitate was collected by centrifugation and dissolved in 5 ml. of original buffer. A 2 ml aliquot of this solution was incubated with 10 mM ATP and 10 mM of FL (prepared as in Example 1, above) for 2 hours at 37° C. The reaction was quenched with 300 μl of perchloric acid, centrifuged to remove protein, and desalted on a column of Sephadex G 10 (5×10 cm). ^31P NMR analysis of the reaction mixture detected formation of FL3P.
Based on the proof of kinase activity thus obtained, a radioactive assay was developed. This assay was designed to take advantage of the binding to Dow-50 cation exchange resin by FL3P. This characteristic of FL3P was discovered during efforts to isolate it. […] A 0.5 ml volume of supernatant was pipetted into 10 ml of Ecoscint A and counted. […] The relationship between rates of FL3P production and enzyme concentration was determined using triplicate determinations with 1, 2, and 4 mg of protein for 30 minutes at 37° C. Blanks run concurrently without FL were subtracted and the data recorded. […]

In a further series the test system is amadorase. Kind of series: Amadorase-dependent production of 3DG in vitro. It is filed as biochemical. The note with it: FL 2.6 mM, after 24 hours.
On the set-up of series [2]: species or system human. Particulars: in vivo. As to the method:
260 g of casein, 120 g of glucose and 720 ml of water were mixed to give a homogeneous mixture. This mixture was transferred to a metal plate and heated at 65° C. for 68 hours. The resulting cake was then pulverized to a coarse powder.
Volunteers spent two days on a fructoselysine-free diet and then consumed 22.5 g of the food product prepared as described herein, thus effectively receiving a 2 gram dose of fructoselysine. Urine was collected at 2 hour intervals for 14 hours and a final collection was made at 24 hours.
FL was measured by HPLC with a Waters 996 diode Array using a Waters C18 Free Amino Acid column at 46° C. and a gradient elution system of acetonitrile-methyl alcohol-water (45:15:40) into acetonitrile-sodium acetate-water (6:2:92) at 1 ml/min. Quantitation employed an internal standard of meglumine.
3DF was measured by HPLC after deionization of the sample. Analyses were performed on a Dionex DX-500 HPLC system employing a PA1 column (Dionex) and eluting with 32 mM sodium hydroxide at 1 ml/min. Quantitation was performed from standard curves obtained daily with synthetic 3DF.
3DG was measured by GC-MS after deionization of the sample. 3DG was derivatized with a 10-fold excess of diaminonaphthalene in PBS. […] Quantitation of 3DG employed selected ion monitoring using an internal standard of U-13C-3DG.

The next series relates to mouse mesangial cells. Nature of the series: Type IV collagen production in kidney cells in vitro. It is filed as cell-based. Here is the method:
Type IV collagen production was measured in mouse mesangial cells. Controls (grown with […]) produced 300 ng of Type IV collagen per 10,000 cells, whereas fructoselysine treated cells (5 or 10 mM fructoselysine with 10 mM glucose) produced 560 and 1100 ng/10,000 cells.

For another series, the system named is 3-deoxyglucosone. Nature of the series: Reduction of urinary and plasma 3-deoxyglucosone in rats after intraperitoneal injection. It is filed as in vivo. The note with it: 10 μmols intraperitoneal, plasma at end of three hours vs before. Here is the method: Urine was collected from six rats for three hours. A plasma sample was also obtained. The animals were then given 10 μmols of either sorbitollysine, mannitollysine, or galactitollysine by intraperitoneal injection. Urine was collected for another three hours, and a plasma sample obtained at the end of the three hours.
a. 3-deoxyglucosone was measured in the samples, as described in Example 5, below, and variable volumes were normalized to creatinine. The average reduction of urinary 3-deoxyglucosone was 50% by sorbitollysine, 35% by mannitollysine and 35% by galactitollysine. Plasma 3-deoxyglucosone was reduced 40% by sorbitollysine, 58% by mannitollysine and 50% by galactitollysine.
Three rats were treated as in b), immediately above, except meglumine (100 μmols) was injected intraperitoneally instead of the above-mentioned lysine derivatives. Three hours after the injection the average 3-deoxyglucosone concentrations in the urine were decreased 42%.
3DG was measured by GC-MS after deionization of the sample. 3DG was derivatized with a 10-fold excess of diaminonaphthalene in PBS. Ethyl acetate extraction gave a salt free fraction which was converted to the trimethyl silyl ethers with Tri-Sil (Pierce). Analysis was performed on a Hewlett-Packard 5890 selected ion monitoring GC-MS system. GC was performed on a fused silica capillary column (DB-5.25 mx.25 mm) using the following temperature program: injector port 250° C., initial column temperature 150° C. which is held for 1 minute, then increased to 290° C. at 16° C./minute and held for 15 minutes. Quantitation of 3DG employed selected ion monitoring using an internal standard of U-13C-3DG.

A further series has as its system 3DG. The note with it: disclosed in WO 98/33492; cited from earlier work.
Series [3] has as its target T1, Calf skin collagen Type I (Bos taurus, UniProt P02453+P02465).
T1 construct: Calf skin collagen Type I (1.3 mg; Sigma); purchased Sigma; host or cells: calf skin
Kind of series: 3DG-induced collagen crosslinking, CNBr digestion and SDS-PAGE. It is filed as biochemical. The note with it: 37° C., 24 hours. Here is the method: Collagen type I was treated with 3DG in the presence or absence of arginine. The samples were subjected to cyanogen bromide (CNBr) digestion, electrophoresed on a 16.5% SDS Tris-tricine gel, and then the gels were processed using silver stain techniques to visualize the proteins. Lane 1 contains molecular weight marker standards. Lanes 2 and 5 contain 10 and 20 μl of the collagen mixture following CNBr digestion. Lanes 3 and 6 contain the collagen mixture treated with 3DG and then digested with CNBr, and loaded at 10 and 20 μl, respectively. Lanes 4 and 7 contain the mixture of collagen incubated with 5 mM 3DG and 10 mM arginine and then digested with CNBr, and loaded at 10 and 20 μl, respectively.
Collagen I was incubated in the presence or absence of 3DG in vitro. Calf skin collagen Type I (1.3 mg; Sigma) was incubated in 20 mM Na-phosphate buffer, pH 7.25, either alone, with 5 mM 3DG, or with 5 mM 3DG plus 10 mM arginine, in a total volume of 1 ml at 37° C. for 24 hours and then frozen and lyophilized. The residue was dissolved in 0.5 ml of 70% formic acid and cyanogen bromide was added (20:1, w/w). This solution was incubated at 30° C. for 18 hours. […] The extent of collagen crosslinking was determined by applying equal volumes of sample and analyzing by SDS-PAGE electrophoresis (16.5% Tris-tricine gel), as determined by the effects of 3DG on the migration of collagen.

T1 sequence (P02453 162-1217 limits assumed): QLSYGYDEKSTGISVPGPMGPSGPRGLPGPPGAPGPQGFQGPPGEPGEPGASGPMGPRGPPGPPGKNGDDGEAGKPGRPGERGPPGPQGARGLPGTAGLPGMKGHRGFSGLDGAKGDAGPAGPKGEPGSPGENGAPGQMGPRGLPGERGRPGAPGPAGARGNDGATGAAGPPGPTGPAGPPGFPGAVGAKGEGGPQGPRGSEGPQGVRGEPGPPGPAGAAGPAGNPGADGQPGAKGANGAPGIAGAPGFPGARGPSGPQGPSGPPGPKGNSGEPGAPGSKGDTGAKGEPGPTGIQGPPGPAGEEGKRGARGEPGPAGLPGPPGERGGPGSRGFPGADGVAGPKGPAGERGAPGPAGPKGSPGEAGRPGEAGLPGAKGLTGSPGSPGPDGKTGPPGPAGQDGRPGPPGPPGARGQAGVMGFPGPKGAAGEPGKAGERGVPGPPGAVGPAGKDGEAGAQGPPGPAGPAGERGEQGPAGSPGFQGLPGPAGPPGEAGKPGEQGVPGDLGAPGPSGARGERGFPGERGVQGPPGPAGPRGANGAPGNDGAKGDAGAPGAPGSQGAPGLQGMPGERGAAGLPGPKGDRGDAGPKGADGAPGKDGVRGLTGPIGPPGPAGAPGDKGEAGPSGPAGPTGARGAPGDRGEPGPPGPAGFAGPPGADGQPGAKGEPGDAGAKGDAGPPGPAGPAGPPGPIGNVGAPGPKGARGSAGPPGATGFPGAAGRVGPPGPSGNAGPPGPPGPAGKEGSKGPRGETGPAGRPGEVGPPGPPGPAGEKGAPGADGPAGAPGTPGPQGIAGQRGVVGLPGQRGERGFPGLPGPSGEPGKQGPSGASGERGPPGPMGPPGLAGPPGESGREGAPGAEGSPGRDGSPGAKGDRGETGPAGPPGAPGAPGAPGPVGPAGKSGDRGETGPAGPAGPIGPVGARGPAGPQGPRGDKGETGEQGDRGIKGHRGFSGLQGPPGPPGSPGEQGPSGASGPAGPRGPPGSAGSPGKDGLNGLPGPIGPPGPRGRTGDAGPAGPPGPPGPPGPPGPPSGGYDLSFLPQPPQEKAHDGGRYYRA
T1 sequence (P02465 80-1117 limits assumed): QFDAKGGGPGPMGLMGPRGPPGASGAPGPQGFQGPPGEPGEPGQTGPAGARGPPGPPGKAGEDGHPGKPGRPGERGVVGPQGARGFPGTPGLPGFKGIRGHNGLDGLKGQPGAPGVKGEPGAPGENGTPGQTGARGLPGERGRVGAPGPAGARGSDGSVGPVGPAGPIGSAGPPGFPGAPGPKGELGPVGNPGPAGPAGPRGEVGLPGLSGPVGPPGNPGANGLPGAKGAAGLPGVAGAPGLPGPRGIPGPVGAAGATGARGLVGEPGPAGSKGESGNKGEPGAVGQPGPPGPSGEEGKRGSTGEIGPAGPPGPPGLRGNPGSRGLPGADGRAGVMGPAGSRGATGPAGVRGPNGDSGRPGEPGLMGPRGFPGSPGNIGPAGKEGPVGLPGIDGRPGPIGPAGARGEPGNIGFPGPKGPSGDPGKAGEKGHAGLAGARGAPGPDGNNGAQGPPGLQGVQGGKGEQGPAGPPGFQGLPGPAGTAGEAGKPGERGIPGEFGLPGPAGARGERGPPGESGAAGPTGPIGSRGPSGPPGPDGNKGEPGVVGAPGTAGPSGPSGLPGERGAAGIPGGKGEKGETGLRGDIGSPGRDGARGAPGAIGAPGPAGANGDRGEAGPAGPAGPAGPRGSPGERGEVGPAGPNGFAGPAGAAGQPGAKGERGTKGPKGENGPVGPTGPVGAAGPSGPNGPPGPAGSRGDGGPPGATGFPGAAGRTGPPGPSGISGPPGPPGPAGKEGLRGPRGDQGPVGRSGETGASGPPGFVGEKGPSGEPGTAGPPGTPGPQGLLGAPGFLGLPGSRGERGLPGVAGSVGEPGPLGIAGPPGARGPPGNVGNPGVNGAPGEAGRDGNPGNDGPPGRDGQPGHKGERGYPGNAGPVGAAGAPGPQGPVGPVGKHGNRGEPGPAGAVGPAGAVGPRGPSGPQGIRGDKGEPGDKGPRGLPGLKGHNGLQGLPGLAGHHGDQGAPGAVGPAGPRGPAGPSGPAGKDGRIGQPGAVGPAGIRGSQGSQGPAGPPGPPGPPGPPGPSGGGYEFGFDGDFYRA

As for `NC(CCCCNCC(=O)C(O)C(O)C(O)CO)C(=O)O` (stereo not drawn) [FL, 1-deoxy-1-(ε-aminolysine)-fructose], the “approximate FL3P synthesis rate” value in series [1] is given as approximately 20 nmols/hr/mg protein. Also, the “3DG” value came out at 1.58 mM in the series with amadorase (Reaction 1: Amadorase +, ATP +); 0.08 mM in the series on amadorase (Reaction 2: Amadorase +, ATP −); 0.09 mM in the series on amadorase (Reaction 3: Amadorase −, ATP +); 0.08 mM in the series on amadorase (Reaction 4: Amadorase −, ATP −). For the same molecule, the “FL3P” value in the series with amadorase (Reaction 1: Amadorase +, ATP +) is reported as 0.2 mM; in the series with amadorase (Reaction 2: Amadorase +, ATP −), 0 mM; in the series on amadorase (Reaction 3: Amadorase −, ATP +) it was 0 mM; with amadorase (Reaction 4: Amadorase −, ATP −) it was 0 mM. Moreover, the “time of peak urinary 3DF excretion after the bolus” value in series [2] is reported as “about 4 hours”. The entries for the “Type IV collagen produced” value in the series with mouse mesangial cells (5 mM fructoselysine with 10 mM glucose) and in the series with mouse mesangial cells (10 mM fructoselysine with 10 mM glucose) were 560 ng/10,000 cells and 1100 ng/10,000 cells, respectively.

For `N[C@@H](CCCCNC[C@@H](O)[C@@H](O)[C@H](O)[C@H](O)CO)C(=O)O` [mannitollysine], the “Plasma 3-deoxyglucosone reduced” value in the series with 3-deoxyglucosone was 58%. In addition, in the series with 3DG, the “urinary or plasma 3DG” value is “can be reduced”.

Turning to `CNC[C@H](O)[C@@H](O)[C@H](O)[C@H](O)CO` [meglumine, reference compound], the “urinary or plasma 3DG” value with 3DG is listed as “can be reduced”.

`N[C@@H](CCCCNC[C@H](O)[C@@H](O)[C@H](O)[C@H](O)CO)C(=O)O` [sorbitollysine]: the “Plasma 3-deoxyglucosone reduced” value in the series with 3-deoxyglucosone came to 40%. Also, the “urinary or plasma 3DG” value in the series on 3DG is listed as “can be reduced”.

With `N[C@@H](CCCCNC[C@H](O)[C@@H](O)[C@@H](O)[C@H](O)CO)C(=O)O` [galactitollysine], in the series with 3-deoxyglucosone, the “Plasma 3-deoxyglucosone reduced” value is listed as 50%. Besides, the “urinary or plasma 3DG” value with 3DG is “can be reduced”.

As for `N=C(N)NCCC[C@H](N)C(=O)O` [arginine], in series [3] (collagen I with 5 mM 3DG plus 10 mM arginine), the “inhibition of 3DG induced collagen crosslinking (high molecular weight bands on gel)” value is “fewer high molecular bands”.

As to `O=CC(=O)C[C@H](O)[C@H](O)CO` [3DG, 3-deoxyglucosone, reference compound], in series [3] (collagen I with 5 mM 3DG), the “collagen crosslinking (migration of collagen on gel)” value is “migrate as if it had a higher molecular weight”.
